The values below come from ChEMBL document CHEMBL4311946, “Mechanistic Insight on the Mode of Action of Colletoic Acid” (J Med Chem, 2019).

Activity calls are given as the source filed them. The calls are words filed in the database; no cut-off is given here.

The subject of series [1] is 3T3-L1. The series is described as follows: Anti-adipogenic activity in differentiated mouse 3T3L1 cells assessed as reduction in PGC1alpha mRNA expression at 50 to 100 uM measured after 2 to 7 days by SYBR green dye-based qRT-PCR analysis relative to control. Format: functional.
Series [2] has as its system 3T3-L1. The series is described as follows: Cell cycle arrest in mouse 3T3L1 cells up to 1 mM measured after 24 hrs under induction medium containing dehydrocorticosterone/cortisone by propidium iodide staining-based flow cytometry. As to conditions: 3t3-l1, 24 h. Format: ADME.
In series [3] the test system is 3T3-L1. The series can be described thus: Inhibition of cell differentiation in mouse 3T3L1 cells assessed as reduction in pre-adipocyte differentiation into matured adipocytes at 50 uM incubated for 48 hrs under induction medium containing dehydrocorticosterone/cortisone followed by shifting to differentiation medium and measured after 7 days by Oil red O staining-based microscopic analysis. Format: functional.

Series [4] has as its system 3T3-L1. The series is described as follows: Anti-adipogenic activity in differentiated mouse 3T3L1 cells assessed as reduction in PPARgamma expression at 50 uM measured on day 7 by Western blot analysis. Format: functional, cell-based.
In series [5] the target is 11-beta-hydroxysteroid dehydrogenase 1 (Homo sapiens, UniProt P28845, C272S). The series is described as follows: Inhibition of N-terminal MKHQHQHQHQHQHQQPL-tagged 11beta-HSD1 C272S mutant (unknown origin) expressed in Escherichia coli BL21 (DE3) using cortisol as substrate measured for 1 hr in presence of NADPH by fluorescence assay.
Chain of 11-beta-hydroxysteroid dehydrogenase 1 (P28845 whole entry C272S): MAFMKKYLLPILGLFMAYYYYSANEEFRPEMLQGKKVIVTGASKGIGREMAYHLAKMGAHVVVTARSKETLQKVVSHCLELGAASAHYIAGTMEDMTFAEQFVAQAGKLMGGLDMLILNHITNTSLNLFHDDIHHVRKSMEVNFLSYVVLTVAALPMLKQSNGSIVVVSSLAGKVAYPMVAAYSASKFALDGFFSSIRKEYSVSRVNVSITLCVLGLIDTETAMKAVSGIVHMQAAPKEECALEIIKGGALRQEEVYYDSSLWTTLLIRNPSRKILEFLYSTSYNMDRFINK
The species entered for series [6] is Homo sapiens. The series can be described thus: Anti-adipogenic activity in human visceral preadipocytes assessed as decrease in lipid accumulation at 50 uM measured after 3 days under induction medium containing hydrocortisone hemi-succinate by oil red O staining-based microscopic analysis. Format: functional, cell-based.
The subject of series [7] is 3T3-L1. The series can be described thus: Anti-adipogenic activity in differentiated mouse 3T3L1 cells assessed as reduction in 11beta-HSD1 expression at 50 uM measured on day 3 by Western blot analysis. Format: functional, cell-based.
Series [8] concerns 3T3-L1. The series can be described thus: Cytotoxicity against mouse 3T3L1 cells up to 1 mM measured after 72 hrs under induction medium containing dehydrocorticosterone/cortisone by celltiter-glo luminescent cell viability assay. It counts as cell-based. As to conditions: 3t3-l1, 72 h.
In series [9] the test system is Homo sapiens. The series can be described thus: Anti-adipogenic activity in human subcutaneous preadipocytes assessed as reduction in pre-adipocyte differentiation into matured adipocytes at 50 uM incubated for 48 hrs under induction medium containing hydrocortisone hemi-succinate prior to compound washout followed by shifting to differentiation medium containing compound supplemented with fresh medium every 48 to 72 hrs for 9 to 14 days by oil red O staining-based microscopic analysis. Format: functional, cell-based.

The subject of series [10] is 3T3-L1. The series is described as follows: Anti-adipogenic activity in mouse 3T3L1 preadipocytes assessed as reduction in S6K1 mRNA expression at 50 to 100 uM measured daily for 2 days under induction media containing dehydrocorticosterone/cortisone by SYBR green dye-based qRT-PCR analysis. Format: functional, cell-based.
The target in series [11] is T1, Peroxisome proliferator-activated receptor gamma (Homo sapiens) (UniProt P37231).
T1 sequence (whole entry): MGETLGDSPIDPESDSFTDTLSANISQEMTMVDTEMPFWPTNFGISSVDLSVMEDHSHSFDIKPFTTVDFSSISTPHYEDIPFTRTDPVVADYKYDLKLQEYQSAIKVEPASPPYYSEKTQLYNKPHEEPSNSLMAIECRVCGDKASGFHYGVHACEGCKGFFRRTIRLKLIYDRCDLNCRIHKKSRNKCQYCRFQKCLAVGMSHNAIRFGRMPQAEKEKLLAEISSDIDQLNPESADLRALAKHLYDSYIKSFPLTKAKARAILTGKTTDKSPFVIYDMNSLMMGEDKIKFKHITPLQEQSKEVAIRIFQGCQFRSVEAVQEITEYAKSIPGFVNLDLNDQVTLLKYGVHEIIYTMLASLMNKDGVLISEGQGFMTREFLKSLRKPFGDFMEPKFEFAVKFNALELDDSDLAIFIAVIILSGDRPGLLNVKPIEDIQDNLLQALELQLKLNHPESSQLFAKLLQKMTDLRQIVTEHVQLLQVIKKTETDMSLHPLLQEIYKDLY
The series can be described thus: Antagonist activity at human PPARgamma expressed in 293H cells assessed as reduction in rosiglitazone-induced transcriptional response at 0.002 to 4 uM preincubated for 30 mins followed by rosiglitazone addition and measured after 16 hrs by reporter gene-based FRET assay. Format: cell-based.

For series [12], the system named is 3T3-L1. The series can be described thus: Anti-adipogenic activity in differentiated mouse 3T3L1 cells assessed as reduction in Glut4 mRNA expression at 50 to 100 uM measured after 2 to 7 days by SYBR green dye-based qRT-PCR analysis. Format: functional, cell-based.
Series [13] deals with 3T3-L1. The series can be described thus: Anti-adipogenic activity in differentiated mouse 3T3L1 cells assessed as reduction in ACACB mRNA expression at 50 to 100 uM measured after 2 to 7 days by SYBR green dye-based qRT-PCR analysis. It counts as functional, cell-based.
In series [14] the test system is 3T3-L1. The series is described as follows: Anti-adipogenic activity in differentiated mouse 3T3L1 cells assessed as reduction in PGC1alpha expression at 50 uM measured on day 7 by Western blot analysis. It counts as functional, cell-based.
Series [15] is described as follows: Half life in human plasma. Format: ADME, cell-free.
The subject of series [16] is Homo sapiens. The series is described as follows: Anti-adipogenic activity in human subcutaneous preadipocytes assessed as decrease in lipid accumulation at 50 uM incubated for 48 hrs under induction medium containing hydrocortisone hemi-succinate prior to compound washout followed by shifting to differentiation medium containing compound supplemented with fresh medium every 48 to 72 hrs for 9 to 14 days by oil red O staining-based microscopic analysis. Format: functional, cell-based.

Series [17] concerns 3T3-L1. The series is described as follows: Anti-adipogenic activity in differentiated mouse 3T3L1 cells assessed as reduction in mitochondrial mass at 50 uM measured on day 7 by mitotracker deep red/hoechst 33342 staining-based confocal imaging analysis. It counts as functional, cell-based.
Series [18] addresses T2, Glucocorticoid receptor (Homo sapiens) (UniProt P04150).
T2 sequence (whole entry): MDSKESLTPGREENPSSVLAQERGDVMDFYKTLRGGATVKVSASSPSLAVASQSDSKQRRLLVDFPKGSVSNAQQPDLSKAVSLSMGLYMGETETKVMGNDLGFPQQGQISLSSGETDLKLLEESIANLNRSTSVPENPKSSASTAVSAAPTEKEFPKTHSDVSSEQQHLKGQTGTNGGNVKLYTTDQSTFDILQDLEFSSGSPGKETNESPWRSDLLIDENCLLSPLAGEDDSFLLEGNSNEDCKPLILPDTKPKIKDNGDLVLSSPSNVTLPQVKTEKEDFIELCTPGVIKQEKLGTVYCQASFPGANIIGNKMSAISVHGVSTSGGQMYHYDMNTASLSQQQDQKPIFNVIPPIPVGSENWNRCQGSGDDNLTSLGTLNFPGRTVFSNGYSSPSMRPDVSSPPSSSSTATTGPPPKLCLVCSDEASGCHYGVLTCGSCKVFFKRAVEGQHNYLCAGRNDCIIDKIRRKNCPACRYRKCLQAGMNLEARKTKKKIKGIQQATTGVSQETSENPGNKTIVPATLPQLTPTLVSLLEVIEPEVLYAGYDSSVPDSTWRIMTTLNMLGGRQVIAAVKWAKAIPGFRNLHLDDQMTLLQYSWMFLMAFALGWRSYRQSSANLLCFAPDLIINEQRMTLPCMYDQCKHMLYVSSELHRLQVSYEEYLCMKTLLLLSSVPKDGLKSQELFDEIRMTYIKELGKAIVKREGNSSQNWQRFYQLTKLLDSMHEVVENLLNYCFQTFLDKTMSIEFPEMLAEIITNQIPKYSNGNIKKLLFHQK
The series is described as follows: Antagonist activity at GR in human MDA-MB-231 cells at 50 uM measured after 4 hrs in presence of dexamethasone by luciferase reporter gene assay. Format: cell-based.

As to `CC1=CC[C@@]2(C[C@@H]1O)[C@@H](C(=O)O)CC[C@H]2C(C)C`, the “fold change (FC)” value in series [1] is listed as under 10. Further, the Activity result in [2] and in [8] was “Non-Toxic” each time. In series [3], the inhibition result was “Active”. Moreover, the outcome in series [4], in series [9], in series [10], in series [12], in [13] and in [14] was Active. The result in series [16] and in series [17] was Active. For the same compound, the IC50 in series [5] amounted to 4.1 µM. Also, the outcome in series [6], in series [7], in series [11] and in [18] was inactive. In series [15], this compound yielded a half-life of over 48 h.
